Measurements from patent US9487554B2, “Estra-1,3,5(10),16-tetraene-3-carboxamide derivatives, processes for their preparation, pharmaceutical preparations comprising them and their use for preparing medicaments” (BAYER INTELLECTUAL PROPERTY GmbH, priority 2011, dated 2016).
Several values for one entry are separate records, joined by “and”; a condition that tells them apart may be missing. Identical values can stand only once.

Molecular target: recombinant human AKR1C3 (Homo sapiens (Human), UniProt P42330)
Test: AKR1C3 enzyme inhibition assay (Coumberone to Coumberol fluorescence)
Type: biochemical
Settings: individual experimental determinations
Protocol: The AKR1C3-inhibitory activity of the substances of the present invention was measured in the AKR1C3 assay described in the paragraphs below.
Essentially, the enzyme activity is measured by quantification of the Coumberol from Coumberone (Halim, M., Yee, D. J., and Sames, D., J. AM. CHEM. SOC. 130, 14123-14128 (2008) and Yee, D. J., Balsanek, V., Bauman, D. R., Penning, T. M., and Sames, D., Proc. Natl. Acad. Sci. USA 103, 13304-13309 (2006)). In this test, the increase of the highly fluorescent Coumberol by NADPH—(nicotinamide adenine dinucleotide phosphate)-dependent reduction of the non-fluorescent Coumberone by AKR1C3 can be determined.
The enzyme used was recombinant human AKR1C3 (Aldo-keto reductase family 1 member C3) (GenBank Accession No. NM_003739). This was expressed in E. coli as GST (glutathione S transferase) fusion protein and purified by glutathione Sepharose affinity chromatography. The GST was removed by digestion with thrombin and subsequent size exclusion chromatography (Dufort, I., Rheault, P., Huang, X F., Soucy, P., and Luu-The, V., Endocrinology 140, 568-574 (1999)).
For the assay, 50 nl of a 100-fold concentrated solution of the test substance in DMSO were pipetted into a black low-volume 384-well microtiter plate (Greiner Bio-One, Frickenhausen, Germany), 2.0 μl of a solution of AKR1C3 in assay buffer [50 mM potassium phosphate buffer pH 7, 1 mM DTT, 0.0022% (w/v) Pluronic F-127, 0.01% BSA (w/v) and protease inhibitor cocktail (Complete, EDTA-free Protease Inhibitor Cocktail from Roche)] were added and the mixture was incubated for 15 min to allow pre-binding of the substances to the enzyme prior to the enzyme reaction. The enzyme reaction was then started by addition of 3 μl of a solution of NADPH (16.7 μM→final concentration in 5 μl of assay volume is 10 μM) and Coumberone (0.5 μM→final concentration in 5 μl of assay volume is 0.3 μM) in assay buffer, and the resulting mixture was incubated at 22° C. for the reaction time of 90 min. The concentration of the AKR1C3 was adapted to the respective activity of the enzyme preparation and adjusted such that the assay was carried out in the linear range. Typical concentrations were in the region of 1 nM. The reaction was stopped by addition of 5 μl of a stop solution consisting of the inhibitor EM-1404 [F. Labrie et al. U.S. Pat. No. 6,541,463, 2003] (2 μM→final concentration in […] is 1 μM). The fluorescence of the Coumberole was then measured at 520 nm (excitation at 380 nm) using a suitable measuring instrument (Pherastar from BMG Labtechnologies). The intensity of the fluorescence was used as a measure of the amount of Coumberole formed and thus of the enzyme activity of AKR1C3. The data were normalized (enzyme reaction without inhibitor=0% inhibition; all other assay components, but no enzyme=100% inhibition).

Sequence of recombinant human AKR1C3 (P42330 whole entry): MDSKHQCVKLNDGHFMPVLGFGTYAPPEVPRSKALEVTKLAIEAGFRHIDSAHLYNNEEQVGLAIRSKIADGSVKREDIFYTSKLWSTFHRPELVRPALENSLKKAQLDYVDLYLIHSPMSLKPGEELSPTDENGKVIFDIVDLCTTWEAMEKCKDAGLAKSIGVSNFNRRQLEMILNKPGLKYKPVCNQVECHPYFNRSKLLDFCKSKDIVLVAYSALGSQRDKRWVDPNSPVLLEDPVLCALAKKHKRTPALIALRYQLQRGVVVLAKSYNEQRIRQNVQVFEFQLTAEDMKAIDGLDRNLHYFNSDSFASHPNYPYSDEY

SMILES	IC50
C[C@]12CC[C@@H]3c4ccc(C(=O)N[C@@H]5CCC[C@@H]5C(=O)O)cc4CC[C@H]3[C@@H]1CC=C2c1cncc(F)c1 (relative stereo) [Example 11, (1R*,2S*)-2-({[17-(5-Fluoropyridin-3-yl)estra-1,3,5(10),16-tetraen-3-yl]carbonyl}amino)-cyclopentane-1-carboxylic acid]	2.2 nM and 1.8 nM
C[C@]12CC[C@@H]3c4ccc(C(=O)NCC5(C(=O)O)CCOCC5)cc4CC[C@H]3[C@@H]1CC=C2c1cncc(F)c1 [Example 1, 4-[({[17-(5-Fluoropyridin-3-yl)estra-1,3,5(10),16-tetraen-3-yl]carbonyl}amino)methyl]-3,4,5,6-tetrahydro-2H-pyran-4-carboxylic acid]	1.4 nM and 1.9 nM
C[C@]12CC[C@@H]3c4ccc(C(=O)NCC5(C(=O)O)CCCC5)cc4CC[C@H]3[C@@H]1CC=C2c1cncc(F)c1 [Example 4, 1-[({[17-(5-Fluoropyridin-3-yl)estra-1,3,5(10),16-tetraen-3-yl]carbonyl}amino)methyl]-cyclopentane-1-carboxylic acid]	13.9 nM and 8.9 nM
C[C@]12CC[C@@H]3c4ccc(C(=O)N5CCC(C(=O)O)CC5)cc4CC[C@H]3[C@@H]1CC=C2c1cncc(F)c1 [Example 6, 1-{[17-(5-Fluoropyridin-3-yl)estra-1,3,5(10),16-tetraen-3-yl]carbonyl}piperidine-4-carboxylic acid]	21.1 nM and 21 nM
CC(C)(NC(=O)c1ccc2c(c1)CC[C@@H]1[C@@H]2CC[C@]2(C)C(c3cncc(F)c3)=CC[C@@H]12)C(=O)O [Example 7, N-{[17-(5-Fluoropyridin-3-yl)estra-1,3,5(10),16-tetraen-3-yl]carbonyl}-2-methylalanine]	8.5 nM and 9.6 nM
C[C@]12CC[C@@H]3c4ccc(C(=O)NCCCC(=O)O)cc4CC[C@H]3[C@@H]1CC=C2c1cncc(F)c1 [Example 8, 4-({[17-(5-Fluoropyridin-3-yl)estra-1,3,5(10),16-tetraen-3-yl]carbonyl}amino)butanoic acid]	8.5 nM and 6.8 nM
C[C@@H](CC(=O)O)NC(=O)c1ccc2c(c1)CC[C@@H]1[C@@H]2CC[C@]2(C)C(c3cncc(F)c3)=CC[C@@H]12 [Example 12, (S)-3-({[17-(5-Fluoropyridin-3-yl)estra-1,3,5(10),16-tetraen-3-yl]carbonyl}amino)-butanoic acid]	1.2 nM and 1.7 nM
C[C@H](CC(=O)O)NC(=O)c1ccc2c(c1)CC[C@@H]1[C@@H]2CC[C@]2(C)C(c3cncc(F)c3)=CC[C@@H]12 [Example 13, (R)-3-({[17-(5-Fluoropyridin-3-yl)estra-1,3,5(10),16-tetraen-3-yl]carbonyl}amino)-butanoic acid]	0.8 nM and 1.8 nM
COc1cncc(C2=CC[C@H]3[C@@H]4CCc5cc(C(=O)NCC(C)(C)C(=O)O)ccc5[C@H]4CC[C@]23C)c1 [Example 14, 3-({[17-(5-Methoxypyridin-3-yl)estra-1,3,5(10),16-tetraen-3-yl]carbonyl}amino)-2,2-dimethylpropanoic acid]	9.8 nM and 17.9 nM
COc1cncc(C2=CC[C@H]3[C@@H]4CCc5cc(C(=O)NCCC(=O)O)ccc5[C@H]4CC[C@]23C)c1 [Example 15, N-{[17-(5-Methoxypyridin-3-yl)estra-1,3,5(10),16-tetraen-3-yl]carbonyl}-β-alanine]	6.9 nM and 7.2 nM
COc1cncc(C2=CC[C@H]3[C@@H]4CCc5cc(C(=O)N(C)CCC(=O)O)ccc5[C@H]4CC[C@]23C)c1 [Example 16, N-{[17-(5-Methoxypyridin-3-yl)estra-1,3,5(10),16-tetraen-3-yl]carbonyl}-N-methyl-β-alanine]	4.4 nM and 6.9 nM
C[C@]12CC[C@@H]3c4ccc(C(=O)NCCC(=O)O)cc4CC[C@H]3[C@@H]1CC=C2c1cncnc1 [Example 17, N-{[17-(Pyrimidin-5-yl)estra-1,3,5(10),16-tetraen-3-yl]carbonyl}-β-alanine]	29.7 nM and 37.6 nM
C[C@]12CC[C@@H]3c4ccc(C(=O)NCCCC(=O)O)cc4CC[C@H]3[C@@H]1CC=C2c1cncnc1 [Example 18, 4-({[17-(Pyrimidin-5-yl)estra-1,3,5(10),16-tetraen-3-yl]carbonyl}amino)butanoic acid]	23.5 nM and 31.8 nM
CN(CCC(=O)O)C(=O)c1ccc2c(c1)CC[C@@H]1[C@@H]2CC[C@]2(C)C(c3cncnc3)=CC[C@@H]12 [Example 19, N-Methyl-N-{[17-(pyrimidin-5-yl)estra-1,3,5(10),16-tetraen-3-yl]carbonyl}-β-alanine]	26.7 nM (2×) and 17.8 nM
CC(C)(CNC(=O)c1ccc2c(c1)CC[C@@H]1[C@@H]2CC[C@]2(C)C(c3cncnc3)=CC[C@@H]12)C(=O)O [Example 20, 2,2-Dimethyl-3-({[17-(pyrimidin-5-yl)estra-1,3,5(10),16-tetraen-3-yl]carbonyl}amino)-propanoic acid]	45.5 nM and 46.3 nM
C[C@]12CC[C@@H]3c4ccc(C(=O)NCCC(=O)O)cc4CC[C@H]3[C@@H]1CC=C2c1cncc(C(F)(F)F)c1 [Example 21, N-({17-[5-(Trifluoromethyl)pyridin-3-yl]estra-1,3,5(10),16-tetraen-3-yl}carbonyl)-β-alanine]	8.5 nM
CN(CCC(=O)O)C(=O)c1ccc2c(c1)CC[C@@H]1[C@@H]2CC[C@]2(C)C(c3cncc(C(F)(F)F)c3)=CC[C@@H]12 [Example 22, N-Methyl-N-({17-[5-(trifluoromethyl)pyridin-3-yl]estra-1,3,5(10),16-tetraen-3-yl}carbonyl)-β-alanine]	4.2 nM
C[C@]12CC[C@@H]3c4ccc(C(=O)N5CCC[C@H]5C(=O)O)cc4CC[C@H]3[C@@H]1CC=C2c1cncc(F)c1 [Example 23, N-{[17-(5-Fluoropyridin-3-yl)estra-1,3,5(10),16-tetraen-3-yl]carbonyl}-L-proline]	1.9 nM
C[C@]12CC[C@@H]3c4ccc(C(=O)N5CCC[C@@H]5C(=O)O)cc4CC[C@H]3[C@@H]1CC=C2c1cncc(F)c1 [Example 24, N-{[17-(5-Fluoropyridin-3-yl)estra-1,3,5(10),16-tetraen-3-yl]carbonyl}-D-proline]	5.3 nM
C[C@]12C[C@H](F)[C@@H]3c4ccc(C(=O)NCCCC(=O)O)cc4CC[C@H]3[C@@H]1CC=C2c1cncc(F)c1 [Example 25, 4-({[11β-Fluoro-17-(5-fluoropyridin-3-yl)estra-1,3,5(10),16-tetraen-3-yl]carbonyl}-amino)butanoic acid]	29.1 nM and 16.8 nM
CN(CCC(=O)O)C(=O)c1ccc2c(c1)CC[C@H]1[C@@H]3[C@@H](O)C=C(c4cncc(F)c4)[C@@]3(C)CC[C@H]21 [Example 26, N-{[17-(5-Fluoropyridin-3-yl)-15α-hydroxyestra-1,3,5(10),16-tetraen-3-yl]carbonyl}-N-methyl-β-alanine]	11 nM and 16.6 nM
CN(CCC(=O)O)C(=O)c1ccc2c(c1)CC[C@H]1[C@@H]3[C@H](O)C=C(c4cncc(F)c4)[C@@]3(C)CC[C@H]21 [Example 27, N-{[17-(5-Fluoropyridin-3-yl)-15β-hydroxyestra-1,3,5(10),16-tetraen-3-yl]carbonyl}-N-methyl-β-alanine]	35.3 nM and 24.2 nM
Cc1cc(C2=CC[C@H]3[C@@H]4CCc5cc(C(=O)N(C)CCC(=O)O)ccc5[C@H]4CC[C@]23C)cnn1 [Example 28, N-Methyl-N-{[17-(6-methylpyridazin-4-yl)estra-1,3,5(10),16-tetraen-3-yl]carbonyl}-β-alanine]	0.5 nM
CN(CCC(=O)O)C(=O)c1ccc2c(c1)CC[C@@H]1[C@@H]2CC[C@]2(C)C(c3cccnc3)=CC[C@@H]12 [Example 29, N-Methyl-N-{[17-(pyridin-3-yl)estra-1,3,5(10),16-tetraen-3-yl]carbonyl}-β-alanine]	2.5 nM
COc1cncc(C2=CC[C@H]3[C@@H]4CCc5cc(C(=O)NCCCC(=O)O)ccc5[C@H]4CC[C@]23C)c1 [Example 30, 4-({[17-(5-Methoxypyridin-3-yl)estra-1,3,5(10),16-tetraen-3-yl]carbonyl}amino)butanoic acid]	7.3 nM and 11.2 nM
